Data from ChEMBL document CHEMBL3885861, “Open TG-GATES”.

Organism: Rattus norvegicus
Assay: Open TG-GATES - Regimen: Single
Type: toxicity, organism-based, Sprague-Dawley
Set-up: regimen Single, gender Male, age 6 weeks
Details: in vivo, po, 2 mg/kg, route gavage, dose level Middle; for APTT / Bas / Eos / Fbg / Hb / Ht / Lym / MCH / MCHC / MCV / Mono / Neu / PT / Plat / RBC / Ret / WBC: tissue Blood; for KIDNEY_L / KIDNEY_R / KIDNEY_TOTAL: tissue Kidney; for LIVER: tissue Liver; for A/G / ALP / ALT / AST / BUN / CRE / Ca / Cl / DBIL / GLC / IP / K / LDH / Na / PL / RALB / TBIL / TC / TG / TP / gamma-GTP: tissue Plasma

With O=NN(CCCl)C(=O)NC1CCCCC1 [LOMUSTINE] the TERMINAL_BW (3 h) was 208.7 g, the APTT (3 h) was 16.4 s and the Bas (3 h) was 0%. For the same molecule, the Eos (3 h) was 0.4%, the Fbg (3 h) was 227.8 mg/dL and the Hb (3 h) was 12.8 g/dL. For the same molecule, the Ht (3 h) was 38.3%, the Lym (3 h) was 81.8% and the MCH (3 h) was 22.5 pg. It also gave an MCHC (3 h) of 33.4%, an MCV (3 h) of 67.4 fL and a Mono (3 h) of 7.2%. The Neu (3 h) was 10.2%, the PT (3 h) was 11.6 s and the Plat (3 h) was 102.8 x10_4/uL. For the same molecule, the RBC (3 h) was 568.2 x10_4/ul, the Ret (3 h) was 9.5% and the WBC (3 h) was 127.7 x10_2/uL. For the same molecule, the KIDNEY_L (3 h) was 0.9 g, the KIDNEY_R (3 h) was 1 g and the KIDNEY_TOTAL (3 h) was 1.9 g. It also gave an LIVER (3 h) of 10 g, an A/G (3 h) of 1.8 and an ALP (3 h) of 890.2 IU/L. The ALT (3 h) was 35.6 IU/L, the AST (3 h) was 70.8 IU/L and the BUN (3 h) was 14.2 mg/dL. For the same molecule, the CRE (3 h) was 0.5 mg/dL, the Ca (3 h) was 11.4 mg/dL and the Cl (3 h) was 104.8 meq/L. The DBIL (3 h) was 0.052 mg/dL, the GLC (3 h) was 187.6 mg/dL and the IP (3 h) was 9.9 mg/dL. The K (3 h) was 4.6 meq/L, the LDH (3 h) was 104.6 IU/L and the Na (3 h) was 139.4 meq/L. The PL (3 h) was 127.4 mg/dL, the RALB (3 h) was 3.5 g/dL and the TBIL (3 h) was 0.3 mg/dL. It also gave a TC (3 h) of 75.8 mg/dL, a TG (3 h) of 41.4 mg/dL and a TP (3 h) of 5.5 g/dL. It also gave a gamma-GTP (3 h) of 1.4 IU/L, a TERMINAL_BW (6 h) of 201.7 g and an APTT (6 h) of 16.8 s. For the same molecule, the Bas (6 h) was 0%, the Eos (6 h) was 0.2% and the Fbg (6 h) was 217.4 mg/dL. The Hb (6 h) was 13.5 g/dL, the Ht (6 h) was 40.4% and the Lym (6 h) was 84.2%. The MCH (6 h) was 21.9 pg, the MCHC (6 h) was 33.4% and the MCV (6 h) was 65.6 fL. For the same molecule, the Mono (6 h) was 4.2%, the Neu (6 h) was 11.4% and the PT (6 h) was 12.2 s. The Plat (6 h) was 103.8 x10_4/uL, the RBC (6 h) was 616.2 x10_4/ul and the Ret (6 h) was 9.4%. The WBC (6 h) was 137.8 x10_2/uL, the KIDNEY_L (6 h) was 1 g and the KIDNEY_R (6 h) was 1 g. For the same molecule, the KIDNEY_TOTAL (6 h) was 1.9 g, the LIVER (6 h) was 8.7 g and the A/G (6 h) was 1.9. For the same molecule, the ALP (6 h) was 941.6 IU/L, the ALT (6 h) was 33.6 IU/L and the AST (6 h) was 66.8 IU/L. For the same molecule, the BUN (6 h) was 11.6 mg/dL, the CRE (6 h) was 0.5 mg/dL and the Ca (6 h) was 11 mg/dL. For the same molecule, the Cl (6 h) was 104.2 meq/L, the DBIL (6 h) was 0.02 mg/dL and the GLC (6 h) was 187.6 mg/dL. For the same molecule, the IP (6 h) was 10.8 mg/dL, the K (6 h) was 5 meq/L and the LDH (6 h) was 80.8 IU/L. It also gave a Na (6 h) of 141.2 meq/L, a PL (6 h) of 140 mg/dL and an RALB (6 h) of 3.5 g/dL. For the same molecule, the TBIL (6 h) was 0.3 mg/dL, the TC (6 h) was 79.6 mg/dL and the TG (6 h) was 49.2 mg/dL. For the same molecule, the TP (6 h) was 5.5 g/dL, the gamma-GTP (6 h) was 1.8 IU/L and the TERMINAL_BW (9 h) was 198 g. The APTT (9 h) was 17 s, the Bas (9 h) was 0% and the Eos (9 h) was 0.8%. For the same molecule, the Fbg (9 h) was 226 mg/dL, the Hb (9 h) was 13.1 g/dL and the Ht (9 h) was 40.1%. For the same molecule, the Lym (9 h) was 78.6%, the MCH (9 h) was 21.4 pg and the MCHC (9 h) was 32.7%. It also gave an MCV (9 h) of 65.6 fL, a Mono (9 h) of 6.2% and a Neu (9 h) of 14.6%. For the same molecule, the PT (9 h) was 12.2 s, the Plat (9 h) was 103.3 x10_4/uL and the RBC (9 h) was 611.2 x10_4/ul. For the same molecule, the Ret (9 h) was 8.8%, the WBC (9 h) was 71.6 x10_2/uL and the KIDNEY_L (9 h) was 0.9 g. It also gave a KIDNEY_R (9 h) of 0.9 g, a KIDNEY_TOTAL (9 h) of 1.8 g and an LIVER (9 h) of 8.4 g. It also gave an A/G (9 h) of 2.3, an ALP (9 h) of 731 IU/L and an ALT (9 h) of 28.6 IU/L. The AST (9 h) was 67.6 IU/L, the BUN (9 h) was 11 mg/dL and the CRE (9 h) was 0.5 mg/dL. For the same molecule, the Ca (9 h) was 10.7 mg/dL, the Cl (9 h) was 105.4 meq/L and the DBIL (9 h) was 0.024 mg/dL. The GLC (9 h) was 191 mg/dL, the IP (9 h) was 10.8 mg/dL and the K (9 h) was 5 meq/L. It also gave an LDH (9 h) of 93.8 IU/L, a Na (9 h) of 139.4 meq/L and a PL (9 h) of 136.2 mg/dL. It also gave an RALB (9 h) of 3.9 g/dL, a TBIL (9 h) of 0.3 mg/dL and a TC (9 h) of 81.6 mg/dL. For the same molecule, the TG (9 h) was 30.8 mg/dL, the TP (9 h) was 5.5 g/dL and the gamma-GTP (9 h) was 1.8 IU/L. For the same molecule, the TERMINAL_BW (24 h) was 218.8 g, the APTT (24 h) was 16.9 s and the Bas (24 h) was 0%. For the same molecule, the Eos (24 h) was 0.4%, the Fbg (24 h) was 207.4 mg/dL and the Hb (24 h) was 12.8 g/dL. The Ht (24 h) was 38.5%, the Lym (24 h) was 80.2% and the MCH (24 h) was 22.3 pg. It also gave an MCHC (24 h) of 33.3%, an MCV (24 h) of 67.1 fL and a Mono (24 h) of 7%. The Neu (24 h) was 12.6%, the PT (24 h) was 12.1 s and the Plat (24 h) was 96.4 x10_4/uL. For the same molecule, the RBC (24 h) was 574.2 x10_4/ul, the Ret (24 h) was 9.1% and the WBC (24 h) was 121.6 x10_2/uL. For the same molecule, the KIDNEY_L (24 h) was 1 g, the KIDNEY_R (24 h) was 1 g and the KIDNEY_TOTAL (24 h) was 2 g. For the same molecule, the LIVER (24 h) was 11.1 g, the A/G (24 h) was 2.3 and the ALP (24 h) was 839.8 IU/L. The ALT (24 h) was 38.8 IU/L, the AST (24 h) was 62.4 IU/L and the BUN (24 h) was 16.8 mg/dL. It also gave a CRE (24 h) of 0.5 mg/dL, a Ca (24 h) of 11.3 mg/dL and a Cl (24 h) of 104.4 meq/L. It also gave a DBIL (24 h) of 0.038 mg/dL, a GLC (24 h) of 195.8 mg/dL and an IP (24 h) of 8.7 mg/dL. For the same molecule, the K (24 h) was 4.8 meq/L, the LDH (24 h) was 87.4 IU/L and the Na (24 h) was 137.8 meq/L. For the same molecule, the PL (24 h) was 157.2 mg/dL, the RALB (24 h) was 4 g/dL and the TBIL (24 h) was 0.3 mg/dL. It also gave a TC (24 h) of 86.8 mg/dL, a TG (24 h) of 80.6 mg/dL and a TP (24 h) of 5.7 g/dL. For the same molecule, the gamma-GTP (24 h) was 1.4 IU/L.
